# In paper PMC7984888, “Inhibitory Activity of Pyrroloisoxazolidine Derivatives against Chlamydia trachomatis” (BioMed Research International, 2021):
# Where two headings read alike, the source gives them in different places.
# Assays:
# C. trachomatis L2 = assay: Period incubation assay; assay type: cell-based, Chlamydia trachomatis; settings: progeny EBs at 36 hpi; for Inhibitory effect, treated at 0-2 h: 32 μM, 0-2 h period; for Production of infectious progenies, compound added during the 12-24 h period: 2, 8 or 32 μM
# Description: HeLa cells seeded in 48-well plate were infected with C. trachomatis L2 at an MOI of 0.2 and treated with 2, 8, or 32 μM of compound during 0-2, 2-12, 12-24, and 24-36 h period. At 36 hpi, the production of infectious progeny EBs and percent inhibition data were determined as above.  Figure 7 Period incubation assay. (a) HeLa cells infected with C. trachomatis L2 were treated with 2, 8, or 32 μM individual compound for indicated times. The production of progeny EBs was determined at 36 hpi. (b–d) Percent inhibition of progeny EBs was calculated based on data in compound-treated samples relative to DMSO-treated control. Data are presented as mean ± SD of three independent assays.
# Uninfected HeLa cells = assay: WST-1 cell viability; assay type: cell-based; settings: 32 μM, 48 h
# Description: (§1) Uninfected HeLa cells were cultured with 32 μM (the highest concentration used in antichlamydial analysis) of individual compound or 0.5% DMSO for 48 h. After 10 μL of WST-1 reagent was added, cells were incubated for an additional 1 h, and absorbance at 450 nm was recorded. The viability of compound-treated cells was calculated by the absorbance relative to that of DMSO control setting as 100% [22].
# WST-1 cell viability = assay type: cell-based; settings: human, uninfected HeLa cells, WST-1, relative to DMSO control as 100%
# Description: as §1
# [1] = system: Chlamydia trachomatis serovar L2 (strain 434/Bu); assay: Infectious progeny inhibition assay, C. trachomatis L2; assay type: cell-based
# Description: Chlamydia trachomatis serovars D (strain UW-3/CX) and L2 (strain 434/Bu) were purchased from ATCC. HeLa cells purchased from ATCC were routinely cultured in DMEM supplemented with 10% heat-inactivated FBS (Sigma-Aldrich) and 10 μg/mL gentamicin at 37°C in a humidified atmosphere of 5% and were used for chlamydial propagation and cell culture experiments. EBs were purified by Renografin density gradient and stored in sucrose-phosphate-glutamate (SPG) buffer at -80°C [20]. A mouse polyclonal anti-MoPn (C. muridarum strain Nigg II) antibody, which was produced in our laboratory and cross-reacting with C. trachomatis D and L2, was used as a primary antibody for both stains detection.
# Cell monolayers seeded onto coverslips in a 24-well plate were infected with C. trachomatis at a multiplicity of infection (MOI) of 0.2 inclusion-forming units (IFU) per cell. Unless noted, individual compound was added into culture medium at indicated concentrations simultaneously at the time of inoculation. 0.5% DMSO was used as negative control and 11.25 μM tetracycline (Sigma-Aldrich) as positive control. For C. trachomatis D, an additional centrifugation (900 × g at room temperature for 1 h) was applied to facilitate the infection. At 36 hours postinfection (hpi), infected cells were fixed by precooled methanol and then subjected to sequential staining processed with a primary antibody and a FITC-conjugated secondary antibody. Evans blue was used as cytoplasm counterstain. Images were shot by an Olympus IX51 fluorescence microscope.
# Cells monolayers seeded in 48-well plate were infected and treated with chemicals as above. After incubation for 36 hours, infected cells were washed twice, scraped off, and lysed by sonication to release the infectious progeny EBs. Then the lysates were used to reinfect fresh cell monolayers grown in 96-well plate following 1 : 10 serial dilution. The inclusion counts were obtained by immunofluorescence staining as above to calculate the number of infectious progeny EBs in each sample. Percent inhibition was calculated based on EB counts in compound-treated samples relative to DMSO-treated negative control.
# Data from the three independent experiments were presented as mean ± standard deviations (SD) and were subjected to pairwise Student's t-tests. p < 0.05 and p < 0.01 are considered statistically significant and statistically highly significant, respectively. The IC50 values, defined as the concentration of compound at which the generation of infectious progeny EBs was reduced by 50% relative to negative control, were calculated by nonlinear regression from percent inhibition data using the GraphPad Prism 5 software, and presented as mean (95% confidence interval).
# [2] = system: Chlamydia trachomatis L2 EBs; assay: Elementary body pretreatment assay; assay type: cell-based; settings: for EB entry efficiency after EB pretreatment for 4 h: 32 μM, 4°C; for EB counts that enter into host cells after EB pretreatment for 1 h: 2, 8 and 32 μM, 37°C and 4°C
# Description: Chlamydia trachomatis L2 EBs suspended in SPG at 4 x 10^5 IFU/mL were exposed to 2, 8, or 32 μM individual compound at 37°C or 4°C for indicated times. EBs then were washed twice to eliminate the residual chemical and were immediately loaded onto HeLa cell monolayers at an MOI of 0.2. The infective EB count was measured by quantifying inclusion numbers at 36 hpi using immunofluorescence staining as above.  Figure 4 Compounds 1 and 2 weakly attenuated the EB infectivity. Chlamydia trachomatis L2 EBs were incubated with 2, 8, or 32 μM compound 1 (a) or 2 (b) at 37°C or 4°C for 1 or 4 h. After washes, EBs were used to infect HeLa cell. At 36 hpi, the inclusion was counted as described in “Materials and Methods.” Data are presented as mean ± SD of three independent assays. ∗∗p < 0.01, compared 4°C with 37°C by Student's t-tests. ^#p < 0.05, compared with each DMSO control sample by Student's t-tests.
# [3] = Chlamydia trachomatis, HeLa, generation of infectious progeny EBs in HeLa cells, MOI 0.2, 36 hpi, 1 to 32 μM, read-out: IC50 (μM) Mean (95% confidence interval) Ct L2
# [4] = Chlamydia trachomatis, text statements over both strains (L2 and D), infectious progeny EBs, read-out: IC50 values, statement covering both C. trachomatis L2 and D
# [5] = generation of infectious progeny EBs in HeLa cells, MOI 0.2, 36 hpi, 1 to 32 μM, read-out: IC50 (μM) Mean (95% confidence interval) Ct L2
"IC50 [1, 3]","IC50 [1, 4]","IC50 [1, 5]",SMILES,"Inhibitory effect, treated at 0-2 h (C. trachomatis L2)","Production of infectious progenies, compound added during the 12-24 h period (C. trachomatis L2)","Intracellular chlamydial growth, 2-12 h period treatment (C. trachomatis L2)","Infectious progeny EBs, 24-36 h period incubation (C. trachomatis L2)","Effect on host cell viability / proliferation activity by WST-1, in words (Uninfected HeLa cells)","viability at 48 h, 32 µM (WST-1 cell viability)",EB entry efficiency after EB pretreatment for 4 h [2],EB counts that enter into host cells after EB pretreatment for 1 h [2]
< 10 µM,7.25 to 9.73 µM,8.69 µM,Clc1ccc(N2C(c3ccccc3)CC3C(c4ccccc4)N(c4ccccc4)OC32)cc1 (stereo not shown) [Compound 2],weak inhibitory effect,significantly inhibited,partially prevented,partially inhibited,did not show cytotoxicity,98.3%,slightly dropped,did not change
< 10 µM,7.25 to 9.73 µM,7.25 µM,c1ccc(C2C3CC(c4ccccc4)N(c4ccccc4)C3ON2c2ccccc2)cc1 (stereo not shown) [Compound 1],weak inhibitory effect,significantly inhibited,partially prevented,partially inhibited,did not show cytotoxicity,101%,slightly dropped,did not change
